Assays:
[1] = tested on: elongated shoots of Jatropha curcas; test: Maturation of elongated shoots on maturation medium; format: cell-based; conditions: BA present in maturation medium; abnormal shoot production and in vitro flowering
Experimental: The chemicals used in the present study were purchased from Duchefa Biochemie, Haarlem, The Netherlands and Sigma Aldrich, Inc., St Louis, USA. The culture media composed of MS basal salts, B5 vitamins, 3% sucrose and 0.8% agar as solidifying agent. The pH of the media is adjusted to 5.6-5.8 before autoclaving. All the cultures were incubated at 25±2° C. with 16 hr light/8 hr dark photoperiod conditions at a light intensity of 150 μEm^−2s^−1. The culture conditions are same throughout the stages of organogenesis. […] Elongated shoots were separated from the clump and cultured on the Maturation medium containing Kn (1.17 μM), AdSO4 (135.75 μM), GA3 (0.73 μM) IBA (0.49 μM) and casein hydrolysate (100 mg/l). Well elongated shoots were separated carefully from the clumps and transferred to maturation medium to induce physiological maturity. Most of the shoots culture in the maturation medium reached maturity within 3 weeks whereas some shoots still need additional 3 weeks and were cultured in the same medium to bring physiological maturity.

[2] = tested on: thin sections of petiole, pedicle, peduncle and rachis explants of Jatropha curcas; test: Shoot bud induction directly from thin sections of explants (direct organogenesis); format: cell-based; conditions: only BA and Kn alone in the medium
Experimental: The petiole from 2nd to 4th leaf and pedicle, peduncle and rachis from inflorescence before the onset of flowering were selected as explant for the present study. Explants were initially washed in running tap water for 5 min and followed by wash in chlorohexidine surgical wash (two drops in 100 ml of distilled water) for 10 min to remove the adhering particles on the surface. The explants were surface sterilized in 0.1% HgCl2 for 10 min followed by 3 washes using sterilized distilled water.
The chemicals used in the present study were purchased from Duchefa Biochemie, Haarlem, The Netherlands and Sigma Aldrich, Inc., St Louis, USA. The culture media composed of MS basal salts, B5 vitamins, 3% sucrose and 0.8% agar as solidifying agent. The pH of the media is adjusted to 5.6-5.8 before autoclaving. All the cultures were incubated at 25±2° C. with 16 hr light/8 hr dark photoperiod conditions at a light intensity of 150 μEm^−2s^−1. The culture conditions are same throughout the stages of organogenesis.
The thin sections of all the explants (petiole, pedicle, peduncle and rachis) and the calli initiated from different explants (petiole, pedicle, […]; […]).
Thin sections of explants placed on shoot induction medium expanded and bended towards up and started to produce adventitious buds from the explants within 2 weeks. […]

[3] = tested on: petiole explant of Jatropha curcas; conditions: medium containing 2.27 μM TDZ; Kumar et al. (2011b); cited from earlier work

Compound | effect of presence in maturation medium on shoot maturation [1] | effect on shoot bud induction from the tested explants [2] | average shoots per 0.5 cm length petiole explant [3] [shoots per explant] | response with petiole explant [3] [%]
c1ccc(CNc2ncnc3nc[nH]c23)cc1 [BA, 6-benzylaminopurine] | hindered maturation | no effect | – | –
c1coc(CNc2ncnc3[nH]cnc23)c1 [Kn, kinetin] | – | no effect | – | –
O=C(Nc1ccccc1)Nc1cnns1 [TDZ, thidiazuron] | – | – | 4.98 | 57.61

— patent US9699976B2, “Direct and indirect organogenesis of Jatropha” (TEMASEK LIFE SCIENCES LABORATORY LTD., priority 2012, dated 2017)
